According to publication PMC5931576, “Allosteric modulation of the farnesoid X receptor by a small molecule” (Scientific Reports, 2018):
Where two headings read alike, the source gives them in different places.

Experiments:
HepG2 cells = test: WST-1 assay; type: cell-based; details: 48 h (or 24 h)
Procedure: (§1) In vitro biological evaluation […]
WST-1 assay (Roche Diagnostics International AG, Rotkreuz, Schweiz) was performed according to manufacturer’s protocol and as described previously. In brief, HepG2 cells were seeded in DMEM high glucose, supplemented with SP (1 mM), penicillin (100 U/mL), streptomycin (100 µg/mL) and 10% FCS in 96-well plates (3∙10^4 cells/well). After 24 h, medium was changed to DMEM high glucose, supplemented with penicillin (100 U/mL), streptomycin (100 µg/mL) and 1% charcoal stripped FCS and cells were incubated with 4 or 16 (final […]
and DMEM/1% DMSO as negative controls. After 48 h (or 24 h), WST reagent (Roche Diagnostics International AG) was added to each well according to manufacturer’s instructions. After 45 min incubation, absorption (450 nm/ reference: 620 nm) was determined with a Tecan Infinite M200 luminometer (Tecan Deutschland GmbH). Each experiment was repeated at least three times in triplicates. […]

CaMKK2 = test: Kinase inhibition assay (radiometric or HTRF); type: biochemical; details: 20 µM
[1] = Metabolism assay (liver microsomes); type: in vitro ADME, Sprague−Dawley rats; details: rat liver microsomes, 10 μM
Procedure: as §1
MgCl2). After 5 min, the reaction was started by the addition of 13 μL of microsome mix from the liver of Sprague−Dawley rats (Invitrogen; 20 mg protein/mL in 0.1 M phosphate buffer) in a shaking water bath at 37 °C.
The reaction was stopped by addition of 250 μL of ice-cold methanol at 0, 15, 30 and 60 min. The samples were diluted with 250 μL of DMSO and centrifuged at 10000 g for 5 min at 4 °C. The supernatants were analyzed and test compound was quantified by HPLC: mobile phase: MeOH 83%/H2O 17%/formic acid 0.1%; flow-rate:
1 mL/min; stationary phase: MultoHigh Phenyl phase, 5 μm, 250 × 4, precolumn, phenyl, 5 μm, 20 × 4; detection wavelength: 330 and 254 nm; injection volume: 50 μL. Control samples were performed to check the stability of 4 or 16 in the reaction mixture: first control was without NADPH, which is needed for the enzymatic activity of the microsomes, second control was with inactivated microsomes (incubated for 20 min at 90 °C), third control was […]
quantified by an external calibration curve, where data are expressed as means ± SEM of single determinations […]
obtained in three independent experiments. […]
as mean percent of remaining compound ± SEM; n=3): 4: 0 min: 100 ± 0%, 15 min: 86 ± 3%, 30 min: 74 ± 1%,

c-Kit = test: Kinase inhibition assay (radiometric or HTRF); type: biochemical
PDGF-Rα = test: Kinase inhibition assay (radiometric or HTRF); type: biochemical
RXRα = test system: T1, RXRα; test: Gal4-DBD-RXRα-LBD hybrid reporter gene assay; type: cell-based, human
T1 construct: expressed in transfected cells; host or cells: HEK293T
Excerpt: The Gal4-fusion receptor plasmids pFA-CMV-hPPARα-LBD[34], pFA-CMV-hPPARγ-LBD[34], pFA-CMV-hPPARδ-LBD[34], pFA-CMV-hLXRα-LBD[35], pFA-CMV-hLXRβ-LBD[35], pFA-CMV-hRXRα-LBD[36], pFA-CMV-hRXRβ-LBD[36], pFA-CMV-hRXRγ-LBD[36], pFA-CMV-hRARα-LBD[36], pFA-CMV-hRARβ-LBD[36], pFA-CMV-hRARγ-LBD[36], pFA-CMV-hVDR-LBD[36] and pFA-CMV-hCAR-LBD[36] coding for the hinge region and ligand binding domain (LBD) of the canonical isoform of the respective nuclear receptor have been reported previously. pFR-Luc (Stratagene) was used as reporter plasmid and pRL-SV40 (Promega) for normalization of transfection efficiency and cell growth.
HEK293T cells were grown in DMEM high glucose, supplemented with 10% FCS, sodium pyruvate (1 mM), penicillin (100 U/mL) and streptomycin (100 μg/mL) at 37 °C and 5% CO2. The day before transfection, HEK293T cells were seeded in 96-well plates (2.5·10^4 cells/well). Before transfection, medium was changed to Opti-MEM without supplements. Transient transfection was carried out using Lipofectamine LTX reagent (Invitrogen) according to the manufacturer’s protocol with pFR-Luc (Stratagene), pRL-SV40 (Promega) and pFA-CMV-hNR-LBD. […] Luminescence was measured with an Infinite M200 luminometer (Tecan Deutschland GmbH) or a Tecan Spark 10 M luminometer (Tecan). […]

PKA = test system: PKA; set-up: method as in doi:10.1016/S0960-894X(96)00601-4, PMID 11162439; details: cited from earlier work
TGR5 = test system: T2, TGR5; test: TGR5 assay (Eurofins); type: cell-based; details: 1 and 10 µM
T2 construct: Eurofins (Brussels, Belgium)

TAK1 = test: Kinase inhibition assay (radiometric or HTRF); type: biochemical; details: 20 µM
AMPKα1 = test: Kinase inhibition assay (radiometric or HTRF); type: biochemical; details: 20 µM
AMPKα2 = test: Kinase inhibition assay (radiometric or HTRF); type: biochemical; details: 20 µM
human FXR = molecular target: T3, human FXR (Homo sapiens, UniProt Q96RI1); test: Full-length FXR transactivation (reporter gene) assay in HeLa cells; type: cell-based; details: for Emax: HeLa; for EC50: read-out: hFXR: EC50; for FXR modulatory potency in words: SAR discussion
T3 construct: expressed in transfected cells; host or cells: HeLa
T3 sequence (Q96RI1 1-486): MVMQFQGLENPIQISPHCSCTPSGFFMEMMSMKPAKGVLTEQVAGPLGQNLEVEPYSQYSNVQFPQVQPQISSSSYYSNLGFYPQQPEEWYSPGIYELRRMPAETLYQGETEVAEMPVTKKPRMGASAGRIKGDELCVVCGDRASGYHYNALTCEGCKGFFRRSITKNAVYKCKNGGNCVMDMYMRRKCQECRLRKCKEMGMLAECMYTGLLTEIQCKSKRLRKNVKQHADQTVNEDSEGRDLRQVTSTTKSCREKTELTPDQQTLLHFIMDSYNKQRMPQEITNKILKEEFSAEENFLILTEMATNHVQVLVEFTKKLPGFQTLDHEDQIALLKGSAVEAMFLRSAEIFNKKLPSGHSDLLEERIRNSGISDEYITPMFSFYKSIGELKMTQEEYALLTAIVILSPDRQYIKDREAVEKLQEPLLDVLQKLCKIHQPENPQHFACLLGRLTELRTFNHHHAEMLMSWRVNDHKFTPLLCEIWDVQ
T3 sequence (P19793 1-462 partner): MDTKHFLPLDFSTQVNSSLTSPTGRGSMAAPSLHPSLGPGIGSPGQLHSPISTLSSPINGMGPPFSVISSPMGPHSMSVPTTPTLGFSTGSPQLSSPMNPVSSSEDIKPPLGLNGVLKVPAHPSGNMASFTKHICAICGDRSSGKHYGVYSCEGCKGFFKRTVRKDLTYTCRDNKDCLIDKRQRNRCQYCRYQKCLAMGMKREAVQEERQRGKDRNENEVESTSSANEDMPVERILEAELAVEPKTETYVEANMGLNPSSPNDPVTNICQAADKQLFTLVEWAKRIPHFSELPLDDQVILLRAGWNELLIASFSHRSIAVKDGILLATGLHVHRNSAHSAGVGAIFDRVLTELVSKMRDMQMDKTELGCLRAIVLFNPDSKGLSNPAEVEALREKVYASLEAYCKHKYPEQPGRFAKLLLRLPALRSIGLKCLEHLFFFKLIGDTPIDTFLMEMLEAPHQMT

[2] = full-length reporter gene assay, HeLa cells, mean ± SEM, n ≥ 3
[3] = full-length reporter gene assay

SMILES: C[C@H](CCC(=O)O)[C@H]1CC[C@H]2[C@@H]3[C@H](O)C[C@@H]4C[C@H](O)CC[C@]4(C)[C@H]3CC[C@]12C [compound 1, chenodeoxycholic acid, reference compound]
- WST-1, mean percent of untreated control (HepG2 cells; HepG2, 50 µM): 88 ± 5%

SMILES: Cc1ccc(NC(=O)c2ccc(CN3CCN(C)CC3)cc2)cc1Nc1nccc(-c2cccnc2)n1 [compound 4, imatinib, reference compound]
- Inhibition of CaMKK2 (CaMKK2): slight inhibition
- mean percent of remaining compound ([1]; 0 min): 100 ± 0%
- mean percent of remaining compound ([1]; 15 min): 86 ± 3%
- mean percent of remaining compound ([1]; 30 min): 74 ± 1%
- mean percent of remaining compound ([1]; 60 min): 61 ± 3%
- Inhibition of c-Kit (c-Kit): potent inhibitor
- Inhibition of PDGF-Rα (PDGF-Rα): potent inhibitor
- RXR agonistic activity (activation of RXRα-Gal4 chimera receptor) (RXRα): neither activated
- Activity on PKA (PKA): inactive
- WST-1, mean percent of untreated control (HepG2 cells; HepG2, 0.1 µM): 98 ± 9%
- WST-1, mean percent of untreated control (HepG2 cells; HepG2, 1 µM): 80 ± 9%
- WST-1, mean percent of untreated control (HepG2 cells; HepG2, 10 µM): 78 ± 3%
- WST-1, mean percent of untreated control (HepG2 cells; HepG2, 50 µM): 65 ± 1%
- WST-1, mean percent of untreated control (HepG2 cells; HepG2, 4 (10 µM) + 1 (50 µM)): 77 ± 7%
- TGR5 modulation (agonistic or antagonistic activity) (TGR5): no agonistic or antagonistic activity
- Inhibition of TAK1 (TAK1): slight inhibition
- Inhibition of AMPKα1 (AMPKα1): did not markedly inhibit
- Inhibition of AMPKα2 (AMPKα2): did not markedly inhibit

SMILES: CC(=O)Nc1ccc(C)c(Nc2nccc(-c3cccnc3)n2)c1.CC(=O)Nc1ccc(C)c(Nc2nccc(-c3cccnc3)n2)c1.CS(=O)(=O)O.CS(=O)(=O)O.CS(=O)(=O)O.CS(=O)(=O)O.O [compound 7]
- hFXR: EC50 (human FXR; [2]): inactive

SMILES: CS(=O)(=O)O.CS(=O)(=O)O.CS(=O)(=O)O.CS(=O)(=O)O.Cc1ccc(NC(=O)c2ccccc2)cc1Nc1nccc(-c2cccnc2)n1.Cc1ccc(NC(=O)c2ccccc2)cc1Nc1nccc(-c2cccnc2)n1.O [compound 8]
- Emax (human FXR; read-out: hFXR: max. rel. act.): 9%
- EC50 (human FXR; [2]): 450 ± 20 nM
- FXR modulatory potency in words (human FXR; [3]): submicromolar

SMILES: CS(=O)(=O)O.CS(=O)(=O)O.CS(=O)(=O)O.CS(=O)(=O)O.Cc1ccc(NC(=O)c2ccc3ccccc3c2)cc1Nc1nccc(-c2cccnc2)n1.Cc1ccc(NC(=O)c2ccc3ccccc3c2)cc1Nc1nccc(-c2cccnc2)n1.O.O.O [compound 9]
- Emax (human FXR; read-out: hFXR: max. rel. act.): 7.1%
- EC50 (human FXR; [2]): 460 ± 10 nM
- FXR modulatory potency in words (human FXR; [3]): submicromolar

SMILES: Cc1ccc(NC(=O)c2ccncc2)cc1Nc1nccc(-c2cccnc2)n1 [compound 10]
- Emax (human FXR; read-out: hFXR: max. rel. act.): 11.7%
- EC50 (human FXR; [2]): 3500 ± 200 nM

SMILES: Cc1ccc(C(=O)Nc2ccc(C)c(Nc3nccc(-c4cccnc4)n3)c2)cc1 [compound 11]
- Emax (human FXR; read-out: hFXR: max. rel. act.): 8.1%
- EC50 (human FXR; [2]): 51 ± 1 nM

SMILES: CCc1ccc(C(=O)Nc2ccc(C)c(Nc3nccc(-c4cccnc4)n3)c2)cc1.CS(=O)(=O)O.CS(=O)(=O)O.O [compound 12]
- Emax (human FXR; read-out: hFXR: max. rel. act.): 7.9%
- EC50 (human FXR; [2]): 6.4 ± 0.4 nM
- FXR modulatory potency in words (human FXR; [3]): single-digit nanomolar activity

SMILES: Cc1ccc(NC(=O)c2ccc(C(C)(C)C)cc2)cc1Nc1nccc(-c2cccnc2)n1 [compound 13]
- Emax (human FXR; read-out: hFXR: max. rel. act.): 8.6%
- EC50 (human FXR; [2]): 580 ± 70 nM

SMILES: Cc1ccc(NC(=O)c2ccc(-c3ccccc3)cc2)cc1Nc1nccc(-c2cccnc2)n1 [compound 14]
- Emax (human FXR; read-out: hFXR: max. rel. act.): 7.1%
- EC50 (human FXR; [2]): 130 ± 20 nM

SMILES: COc1ccc(C(=O)Nc2ccc(C)c(Nc3nccc(-c4cccnc4)n3)c2)cc1 [compound 15]
- Emax (human FXR; relative to FXR full agonist 3 at 3 µM, mean ± SEM, n ≥ 3, read-out: hFXR: max. rel. act. (converted)): 8.4%
- EC50 (human FXR; [2]): 1000 ± 100 nM

SMILES: Cc1ccc(N)cc1Nc1nccc(-c2cccnc2)n1 [compound 17, reference compound]
- Emax (human FXR; read-out: hFXR: max. rel. act.): 9.2%
- EC50 (human FXR; [2]): 17800 ± 1100 nM
